Columns and labels:
DU-145 = test: NCI-60 DTP human tumor cell line screening; type: cell-based; conditions: Prostate cancer DU-145
MOLT-4 = test: NCI-60 DTP human tumor cell line screening; type: cell-based; conditions: Leukemia MOLT-4
SN 12C = test: NCI-60 DTP human tumor cell line screening; type: cell-based; conditions: Renal cancer SN 12C
KM12 = test: NCI-60 DTP human tumor cell line screening; type: cell-based
HCT-15 = test: NCI-60 DTP human tumor cell line screening; type: cell-based; conditions: Colon cancer HCT-15
SF-295 = test: NCI-60 DTP human tumor cell line screening; type: cell-based; conditions: CNS cancer SF-295
SK-MEL-2 = test: NCI-60 DTP human tumor cell line screening; type: cell-based; conditions: Melanoma SK-MEL-2
[1] = tested on: panel of 60 human tumor cell lines; test: NCI-60 DTP human tumor cell line screening, whole panel
SNB-19 = test: NCI-60 DTP human tumor cell line screening; type: cell-based; conditions: CNS cancer SNB-19
HL-60 (TB) = test: NCI-60 DTP human tumor cell line screening; type: cell-based
UACC-62 = test: NCI-60 DTP human tumor cell line screening; type: cell-based; conditions: Melanoma UACC-62
NCI/ADR-RES = test: NCI-60 DTP human tumor cell line screening; type: cell-based
UACC-257 = test: NCI-60 DTP human tumor cell line screening; type: cell-based; conditions: Melanoma UACC-257
NCI-H226 = test: NCI-60 DTP human tumor cell line screening; type: cell-based; conditions: Non-small cell lung cancer NCI-H226
MDA-MB-435 = test: NCI-60 DTP human tumor cell line screening; type: cell-based
HT29 = test: NCI-60 DTP human tumor cell line screening; type: cell-based
OVCAR-5 = test: NCI-60 DTP human tumor cell line screening; type: cell-based; conditions: Ovarian cancer OVCAR-5
MDA-MB-468 = test: NCI-60 DTP human tumor cell line screening; type: cell-based
UO-31 = test: NCI-60 DTP human tumor cell line screening; type: cell-based; conditions: Renal cancer UO-31
BT-549 = test: NCI-60 DTP human tumor cell line screening; type: cell-based; conditions: Breast cancer BT-549
TK-10 = test: NCI-60 DTP human tumor cell line screening; type: cell-based
HOP-92 = test: NCI-60 DTP human tumor cell line screening; type: cell-based; conditions: Non-small cell lung cancer HOP-92
A549/ATCC = test: NCI-60 DTP human tumor cell line screening; type: cell-based; conditions: Non-small cell lung cancer A549/ATCC
NCI-H460 = test: NCI-60 DTP human tumor cell line screening; type: cell-based
M-14 = test: NCI-60 DTP human tumor cell line screening; type: cell-based; conditions: Melanoma M-14
HCC-2998 = test: NCI-60 DTP human tumor cell line screening; type: cell-based; conditions: Colon cancer HCC-2998
SK-OV-3 = test: NCI-60 DTP human tumor cell line screening; type: cell-based; conditions: Ovarian cancer SK-OV-3
CAKI-1 = test: NCI-60 DTP human tumor cell line screening; type: cell-based; conditions: Renal cancer CAKI-1
OVCAR-4 = test: NCI-60 DTP human tumor cell line screening; type: cell-based; conditions: Ovarian cancer OVCAR-4
IGROV1 = test: NCI-60 DTP human tumor cell line screening; type: cell-based; conditions: Ovarian cancer IGROV1
LOX IMVI = test: NCI-60 DTP human tumor cell line screening; type: cell-based; conditions: Melanoma LOX IMVI
T-47D = test: NCI-60 DTP human tumor cell line screening; type: cell-based; conditions: Breast cancer T-47D
leukemia cell lines = test: NCI-60 DTP human tumor cell line screening, leukemia panel; type: cell-based; conditions: mean for leukemia cell line panel, read-out: GI 50 mean value

With `NC(=NS(=O)(=O)c1ccccc1Cl)c1ccc2ccccc2n1` [Compound 15, N′-(2-Chlorophenylsulfonyl)quinoline-2-carboximidamide] the GI50 (DU-145; Homo sapiens) was 4.96 µM, the TGI (DU-145) was “^c (Determined TGI values were >100 μM)” and the GI50 (MOLT-4; Homo sapiens) was 5.91 µM. For the same molecule, the TGI (MOLT-4) was “^c (Determined TGI values were >100 μM)”, the GI50 (SN 12C; Homo sapiens, SN12C) was 7.67 µM and the TGI (SN 12C) was “^c (Determined TGI values were >100 μM)”. The TGI (KM12; Colon cancer KM12) was “^c (Determined TGI values were >100 μM)”, the inhibition at 10 µM (KM12; Homo sapiens, KM12, read-out: Growth inhibition ΔGI) was 23% and the GI50 (KM12; Homo sapiens, Colon cancer KM12) was 3.29 µM. For the same molecule, the TGI (HCT-15) was “^c (Determined TGI values were >100 μM)”, the GI50 (HCT-15; Homo sapiens) was 4.23 µM and the TGI (SF-295) was 86.30 µM. For the same molecule, the GI50 (SF-295; Homo sapiens) was 3.83 µM, the GI50 (SK-MEL-2; Homo sapiens) was 3.4 µM and the TGI (SK-MEL-2) was “^c (Determined TGI values were >100 μM)”. For the same molecule, the “Growth percent mean values (MG_MID)” value ([1]; 10 μM, mean of growth percent for all tested cell lines) was 53.4%, the GI50 ([1]; Homo sapiens) was 0.92 to 13 µM and the CC50 ([1]; Homo sapiens, SK-MEL-5, read-out: LC 50) was greater than 100 µM. For the same molecule, the TGI (SNB-19) was “^c (Determined TGI values were >100 μM)”, the GI50 (SNB-19; Homo sapiens) was 5.61 µM and the inhibition at 10 µM (HL-60 (TB); Homo sapiens, HL-60, read-out: Growth inhibition ΔGI) was 19.7%. It also gave a GI50 (HL-60 (TB); Homo sapiens, Leukemia HL-60 (TB)) of 2.29 µM, a TGI (HL-60 (TB); Leukemia HL-60 (TB)) of 8.41 µM and a GI50 (UACC-62; Homo sapiens) of 6.07 µM. For the same molecule, the TGI (UACC-62) was “^c (Determined TGI values were >100 μM)”, the inhibition at 10 µM (NCI/ADR-RES; Homo sapiens, NCI/ADR-RES, read-out: Growth inhibition ΔGI) was 42.9% and the GI50 (NCI/ADR-RES; Homo sapiens, Ovarian cancer NCI/ADR-RES) was 2.32 µM. The TGI (NCI/ADR-RES; Ovarian cancer NCI/ADR-RES) was 50.50 µM, the GI50 (UACC-257; Homo sapiens) was 11.7 µM and the TGI (UACC-257) was “^c (Determined TGI values were >100 μM)”. For the same molecule, the GI50 (NCI-H226; Homo sapiens) was 10.8 µM, the TGI (NCI-H226) was “^c (Determined TGI values were >100 μM)” and the inhibition at 10 µM (MDA-MB-435; Homo sapiens, MDA-MB-435, read-out: Growth inhibition ΔGI) was 80.4%. The GI50 (MDA-MB-435; Homo sapiens, Melanoma MDA-MB-435) was 1.13 µM, the TGI (MDA-MB-435; Melanoma MDA-MB-435) was 3.78 µM and the TGI (HT29; Colon cancer HT29) was 14.90 µM. It also gave an inhibition at 10 µM (HT29; Homo sapiens, HT-29, read-out: Growth inhibition ΔGI) of 60.4%, a GI50 (HT29; Homo sapiens, HT-29, Colon cancer HT29) of 3.4 µM and a GI50 (OVCAR-5; Homo sapiens) of 7.71 µM. The TGI (OVCAR-5) was “^c (Determined TGI values were >100 μM)”, the TGI (MDA-MB-468; Breast cancer MDA-MB-468) was 6.19 µM and the inhibition at 10 µM (MDA-MB-468; Homo sapiens, MDA-MB-468, read-out: Growth inhibition ΔGI) was 42.2%. For the same molecule, the GI50 (MDA-MB-468; Homo sapiens, Breast cancer MDA-MB-468) was 2.01 µM, the GI50 (UO-31; Homo sapiens) was 7.26 µM and the TGI (UO-31) was 48.50 µM. The TGI (BT-549) was 56.00 µM, the GI50 (BT-549; Homo sapiens) was 5.08 µM and the inhibition at 10 µM (TK-10; Homo sapiens, TK-10, read-out: Growth inhibition ΔGI) was 21.7%. For the same molecule, the GI50 (TK-10; Homo sapiens, Renal cancer TK-10) was 6.02 µM, the TGI (TK-10; Renal cancer TK-10) was 7.08 µM and the GI50 (HOP-92; Homo sapiens) was 9.34 µM. For the same molecule, the TGI (HOP-92) was 90.80 µM, the GI50 (A549/ATCC; Homo sapiens) was 5.37 µM and the TGI (A549/ATCC) was “^c (Determined TGI values were >100 μM)”. For the same molecule, the inhibition at 10 µM (NCI-H460; Homo sapiens, NCI-H460, read-out: Growth inhibition ΔGI) was 19.6%, the GI50 (NCI-H460; Homo sapiens, Non-small cell lung cancer NCI-H460) was 4.02 µM and the TGI (NCI-H460; Non-small cell lung cancer NCI-H460) was “^c (Determined TGI values were >100 μM)”. For the same molecule, the GI50 (M-14; Homo sapiens, M14) was 3.61 µM, the TGI (M-14) was “^c (Determined TGI values were >100 μM)” and the TGI (HCC-2998) was 59.40 µM. The GI50 (HCC-2998; Homo sapiens) was 9.63 µM, the GI50 (SK-OV-3; Homo sapiens) was 3.93 µM and the TGI (SK-OV-3) was “^c (Determined TGI values were >100 μM)”. For the same molecule, the GI50 (CAKI-1; Homo sapiens) was 5.21 µM, the TGI (CAKI-1) was “^c (Determined TGI values were >100 μM)” and the GI50 (OVCAR-4; Homo sapiens) was 9.15 µM. The TGI (OVCAR-4) was 9.53 µM, the GI50 (IGROV1; Homo sapiens, IGROV-1) was 9.42 µM and the TGI (IGROV1) was “^c (Determined TGI values were >100 μM)”. For the same molecule, the GI50 (LOX IMVI; Homo sapiens) was 4.05 µM, the TGI (LOX IMVI) was “^c (Determined TGI values were >100 μM)” and the TGI (T-47D) was “^c (Determined TGI values were >100 μM)”. It also gave a GI50 (T-47D; Homo sapiens, T47D) of 7.04 µM and a GI50 (leukemia cell lines) of 3.52 µM.
